Experimental findings from ChEMBL document CHEMBL1201862, “PubChem BioAssay data set” (2004) are described below.

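1) Cells in 96-well plates. 2) Compound, 48 h, 5 concentrations. 3) Linear interpolation between surrounding doses. 4) Unreached endpoint = highest concentration. Here, GI50 denotes the concentration required for 50% inhibition of growth.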 The source made the active and inactive calls. Rule as the data show it: active = GI50 up to about 1.1 µM and inactive = higher. Where only a bound is given, the exact number is not on record here.

Some test systems named below: Hs-578T; MDA-N; SR; Malme-3M; CCRF-CEM; UACC-62; HOP-92; IGROV-1; M14; SF-268; SK-MEL-5; SK-MEL-2; UO-31; SNB-75; NCI-H226; MCF7; CAKI-1; SN12C; A498.
Assay in all cases: NCI-60 cell line screen, 48 h

In the case of `COc1cc(Nc2nc3c(N)cc(C(F)(F)F)cc3nc2-c2ccccc2)cc(OC)c1OC`, the GI50 was 22.3 µM (inactive) with Hs-578T; > 80.7 µM (inactive) in the assay on MDA-N; > 87.5 µM (inactive) with SR; 41.1 µM (inactive) in the assay on Malme-3M; > 100 µM (inactive) in the assay with CCRF-CEM; 43.1 µM (inactive) in the assay with UACC-62. Besides, the GI50 in the assay on HOP-92 was 1.39 µM (inactive); with IGROV-1 it was 55.3 µM (inactive); in the assay with M14 it was 66.2 µM (inactive); with SF-268 it was 33.4 µM (inactive); in the assay with SK-MEL-5, 19.1 µM (inactive); in the assay with SK-MEL-2, 51.4 µM (inactive). The GI50 with UO-31 was > 100 µM (inactive); in the assay with SNB-75 it was 17 µM (inactive); with NCI-H226 it was 61.1 µM (inactive); in the assay on MCF7, 67.3 µM (inactive); with CAKI-1 it was 45.4 µM (inactive); in the assay on SN12C, 43 µM (inactive).
Take `O=[N+]([O-])/C=C/COCc1cc2c(cc1Br)OCO2`: the GI50 in the assay with Hs-578T was 23.6 µM (inactive); with MDA-N, 18.2 µM (inactive); in the assay on SR, 23.4 µM (inactive); in the assay on CCRF-CEM it was 1.15 µM (inactive); in the assay on UACC-62, 16.5 µM (inactive); in the assay on HOP-92, 23.2 µM (inactive). The GI50 in the assay on IGROV-1 was 29.8 µM (inactive); with M14, 16.3 µM (inactive); with SF-268, 19.1 µM (inactive); in the assay on SK-MEL-5 it was 20.2 µM (inactive); in the assay on A498, 27.6 µM (inactive); in the assay on UO-31, 17.2 µM (inactive). Moreover, the GI50 was 17.4 µM (inactive) with SNB-75, 17.2 µM (inactive) with MCF7, 20.6 µM (inactive) with CAKI-1 and 18.6 µM (inactive) in the assay on SN12C.
In the case of `C=CCOC1=C(OC(C)=O)C(=O)OC1C1COC(C)(C)O1` (stereo unspecified), the GI50 in the assay with Hs-578T is 32.4 µM (inactive); in the assay on MDA-N, 30.1 µM (inactive); in the assay on SR, 5.58 µM (inactive); in the assay with Malme-3M, 21.8 µM (inactive); in the assay with CCRF-CEM, 21.4 µM (inactive); with UACC-62 it was 57 µM (inactive). The GI50 with IGROV-1 was 37.9 µM (inactive); with M14, 36 µM (inactive); in the assay with SF-268 it was 48.4 µM (inactive); in the assay on SK-MEL-5, 44.6 µM (inactive); with A498, > 89.5 µM (inactive); in the assay with SK-MEL-2, > 52.6 µM (inactive). Moreover, the GI50 in the assay with UO-31 was 28.1 µM (inactive); in the assay on SNB-75, > 36.3 µM (inactive); in the assay with NCI-H226, 61.1 µM (inactive); in the assay on MCF7 it was 28.2 µM (inactive); in the assay on CAKI-1 it was 37.7 µM (inactive); in the assay on SN12C it was > 42.8 µM (inactive).
For `NC1N=C(c2ccc(Cl)cc2)C2=C(N1)c1ccccc1CC2` (stereo unspecified), the GI50 in the assay on Hs-578T was 8.71 µM (inactive); in the assay on MDA-N, 2.29 µM (inactive); in the assay on Malme-3M, 10.3 µM (inactive); with CCRF-CEM it was 3.93 µM (inactive); with UACC-62, 15 µM (inactive); in the assay with HOP-92, 33.6 µM (inactive). The GI50 in the assay with IGROV-1 was 5.68 µM (inactive); in the assay with M14, 19.9 µM (inactive); with SF-268, > 54 µM (inactive); in the assay with SK-MEL-5, 14.7 µM (inactive); in the assay on A498 it was 49.5 µM (inactive); in the assay on SK-MEL-2, 9.08 µM (inactive). In addition, the GI50 with UO-31 is 32.7 µM (inactive); in the assay on SNB-75, 1.71 µM (inactive); in the assay with NCI-H226 it was 14.4 µM (inactive); in the assay with MCF7, 6.55 µM (inactive); in the assay with CAKI-1, 76.4 µM (inactive); in the assay with SN12C, 19.9 µM (inactive).
`O=C1Nc2cc(Cl)ccc2C(=O)N2CCC[C@@H]12`: the GI50 in the assay with Hs-578T is 33.5 µM (inactive); in the assay on MDA-N it was > 100 µM (inactive); with Malme-3M it was > 100 µM (inactive); with CCRF-CEM it was > 100 µM (inactive); in the assay on UACC-62 it was > 100 µM (inactive); with HOP-92, > 100 µM (inactive). Besides, the GI50 in the assay with IGROV-1, in the assay with M14, in the assay on SF-268, with SK-MEL-5, with A498 and in the assay with SK-MEL-2 was > 100 µM (inactive) throughout. Besides, the GI50 with UO-31 is > 100 µM (inactive); in the assay on SNB-75 it was > 100 µM (inactive); in the assay on NCI-H226 it was 0.929 µM (active); with MCF7, > 100 µM (inactive); in the assay with CAKI-1, > 100 µM (inactive); in the assay with SN12C it was > 100 µM (inactive).
Take `O=c1cc(NCC2CCCCC2)[nH]c(=O)[nH]1`: the GI50 with Hs-578T was > 100 µM (inactive); in the assay with MDA-N, > 100 µM (inactive); with SR, > 100 µM (inactive); in the assay with Malme-3M, > 100 µM (inactive); in the assay with CCRF-CEM it was > 100 µM (inactive); with HOP-92, 95.1 µM (inactive). Moreover, the GI50 in the assay with IGROV-1, in the assay on M14, in the assay with SF-268, with SK-MEL-5, in the assay on A498 and in the assay on UO-31 was > 100 µM (inactive) each time. Moreover, the GI50 with SNB-75, with NCI-H226, in the assay with MCF7 and in the assay on SN12C was > 100 µM (inactive) throughout.
On to `COc1ccccc1N1C(=O)/C(=C\c2cc(OC)c(OC)c(OC)c2)S(=O)(=O)C1c1ccccc1` (stereo unspecified), for which the GI50 in the assay on Hs-578T was 32.7 µM (inactive); in the assay on MDA-N it was 18.4 µM (inactive); in the assay with SR, 23.7 µM (inactive); with Malme-3M, 26.9 µM (inactive); in the assay on CCRF-CEM it was 15.6 µM (inactive); in the assay on UACC-62, 29.9 µM (inactive). For the same compound, the GI50 with HOP-92 is 33.3 µM (inactive); in the assay on M14 it was 31 µM (inactive); with SF-268, 44.4 µM (inactive); in the assay on SK-MEL-5, 26.4 µM (inactive); in the assay on A498, 48.2 µM (inactive); in the assay on SK-MEL-2, 26.9 µM (inactive). The GI50 is 36.5 µM (inactive) with UO-31; 44.8 µM (inactive) in the assay on NCI-H226; 27.4 µM (inactive) in the assay on MCF7; 53.3 µM (inactive) in the assay on CAKI-1; 73.6 µM (inactive) in the assay on SN12C.
Regarding `CC(=O)/N=C1/N(/C=C2\C(=O)Oc3ccccc3C2=O)C(=O)/C(=C/c2ccccc2Cl)N1C`, the GI50 with Hs-578T was 4.29 µM (inactive); with MDA-N, > 100 µM (inactive); with SR it was 69.3 µM (inactive); with Malme-3M, > 100 µM (inactive); in the assay on CCRF-CEM it was > 100 µM (inactive); in the assay with UACC-62, > 100 µM (inactive). Also, the GI50 in the assay with IGROV-1 is > 100 µM (inactive); with M14 it was > 100 µM (inactive); in the assay on SF-268 it was 73.8 µM (inactive); in the assay with SK-MEL-5, 48 µM (inactive); in the assay with A498, 0.564 µM (active); in the assay with SK-MEL-2, > 100 µM (inactive). Further, the GI50 with SNB-75 is 22.2 µM (inactive); in the assay on NCI-H226 it was > 100 µM (inactive); in the assay with MCF7 it was > 100 µM (inactive); in the assay on CAKI-1, > 100 µM (inactive); in the assay with SN12C, > 100 µM (inactive).
Regarding `C=C1C(OC)=C(OC)C(=O)c2[nH]c3c(OC)cc([N+](=O)[O-])cc3c21`, the GI50 with Hs-578T, in the assay on MDA-N, with Malme-3M, with CCRF-CEM, with UACC-62 and with HOP-92 was > 100 µM (inactive) in each case. In addition, the GI50 in the assay on IGROV-1, in the assay on M14, in the assay on SF-268, in the assay on SK-MEL-5, in the assay on A498 and in the assay with SK-MEL-2 was > 100 µM (inactive) in each case. Besides, the GI50 in the assay with UO-31 was > 100 µM (inactive); in the assay on SNB-75, 39.1 µM (inactive); in the assay with NCI-H226 it was > 100 µM (inactive); in the assay on MCF7, > 100 µM (inactive); in the assay on CAKI-1, > 100 µM (inactive); with SN12C, > 100 µM (inactive).
In the case of `COc1cc(OC)nc(-n2c(N)c(C#N)c3ccc([N+](=O)[O-])cc3c2=O)n1`, the GI50 with Hs-578T, in the assay on MDA-N, in the assay on SR, with CCRF-CEM, in the assay on UACC-62 and in the assay on HOP-92 was > 100 µM (inactive) in each case. Also, the GI50 in the assay on IGROV-1 was 79.3 µM (inactive); in the assay on M14, > 100 µM (inactive); with SF-268, > 100 µM (inactive); in the assay on SK-MEL-5, > 100 µM (inactive); with A498, > 100 µM (inactive); in the assay on SK-MEL-2, > 100 µM (inactive). In addition, the GI50 in the assay on UO-31, with SNB-75, in the assay with MCF7, in the assay on CAKI-1 and with SN12C was > 100 µM (inactive) throughout.
`C1CCC(CC2CCC(NC3=NCCO3)CC2)CC1` (stereo unspecified): the GI50 is 16.3 µM (inactive) in the assay on Hs-578T; 20.3 µM (inactive) in the assay on MDA-N; 24.4 µM (inactive) in the assay on SR; 15.8 µM (inactive) with Malme-3M; 26.1 µM (inactive) with CCRF-CEM; 17.3 µM (inactive) in the assay with UACC-62. Moreover, the GI50 with IGROV-1 was 19.7 µM (inactive); in the assay with M14, 18.9 µM (inactive); in the assay on SF-268 it was 26 µM (inactive); with SK-MEL-5 it was 19.5 µM (inactive); in the assay with A498, 26 µM (inactive); with SK-MEL-2 it was 18.4 µM (inactive). The GI50 with UO-31 was 19.9 µM (inactive); in the assay on SNB-75, 18.2 µM (inactive); in the assay with NCI-H226, 18.8 µM (inactive); in the assay on MCF7, 17.5 µM (inactive); in the assay on CAKI-1, 24.5 µM (inactive); in the assay with SN12C, 19.8 µM (inactive).
